Measured values published in patent EP0317278A2, “Proteolytic fragments and synthetic peptides that block the binding of von Willebrand factor to the platelet membrane glycoprotein Ib” (SCRIPPS CLINIC AND RESEARCH FOUNDATION, priority 1987, dated 1989).
Where a SMILES comes first, the peptide text is derived from it. Where no end group is shown, it is not given here.

How the values were obtained:
[1] = molecular target: T1, GPIb (Homo sapiens, UniProt P07359); assay: Inhibition of ristocetin-induced binding of 125I-vWF to formalin-fixed platelets by peptides; details: formalin-fixed platelets 1 x 10¹¹/liter, 125I-vWF 5 micrograms/ml, ristocetin 1.0 mg/ml, 30 minutes room temperature; read-out: IC₅₀ (concentration of peptide which inhibited binding by 50%)
T1 construct: endogenous in cells; host or cells: fresh or formalin-fixed platelets
Protocol: To test the inhibition of ristocetin-induced binding of vWF to platelets by peptides, formalin-fixed platelets were used at a final concentration of 1 x 10¹¹/liter. Peptides to be tested were then added at various concentrations. One third final volume of vWF deficient plasma was then added followed by ¹²⁵I-vWF a final concentration of 5 micrograms/ml. Ristocetin was then added at a concentration of 1.0 mg/ml. After incubation for 30 minutes at room temperature bound and free ligand were separated by centrifuging 50 microliters of the mixture through 300 microliters of 20% sucrose at 12,000 x g for 4 minutes. The platelet pellet was then separated from the rest of the mixture to determine platelet-bound radioactivity. Nonspecific binding was defined as the residual binding of ¹²⁵I-vWF in the presence of a 50-fold excess of unlabeled vWF but in the absence of any peptides.
(§1) Percent inhibition with a given peptide was calculated by dividing the specific cpm in the absence of peptide. The IC₅₀'s (concentration of peptide which inhibited binding by 50%) for the peptides tested were as follows: […]

[2] = molecular target: T1, GPIb; assay: Inhibition of 125I-asialo-vWF binding to fresh platelets by peptides
Protocol: To test the inhibitions of asialo-vWF binding to platelets, fresh platelets were used. These were prepared by drawing blood into 11 millimolar trisodium citrate and 2 millimolar EDTA. Platelet-rich plasma was then prepared by differential centrifugation. The platelet count was then adjusted to 1 x 10¹¹/liter. Peptides were then added to various concentrations and ¹²⁵I-asialo-vWF was then added at a final concentration of 5 micrograms/ml. After incubation for 30 minutes at room temperature bound and free ligand were separated by centrifuging 50 microliters of the mixture through 300 microliters of 20% sucrose at 12,000 x g for 4 minutes. The platelet pellet was then separated from the rest of the mixture to determine platelet-bound radioactivity. Non-specific binding was defined as the residual binding of ¹²⁵I-asialo-vWF in the presence of a 50-fold excess of unlabeled vWF but in the absence of any peptides.
as §1, with “dividing the specific cpm obtained when various concentrations of peptide were added by” for “dividing”

[3] = fresh platelets 1 x 10¹¹/liter, 125I-asialo-vWF 5 micrograms/ml, 30 minutes room temperature, read-out: IC₅₀ (concentration of peptide which inhibited binding by 50%)

T1 sequence (P07359 17-652): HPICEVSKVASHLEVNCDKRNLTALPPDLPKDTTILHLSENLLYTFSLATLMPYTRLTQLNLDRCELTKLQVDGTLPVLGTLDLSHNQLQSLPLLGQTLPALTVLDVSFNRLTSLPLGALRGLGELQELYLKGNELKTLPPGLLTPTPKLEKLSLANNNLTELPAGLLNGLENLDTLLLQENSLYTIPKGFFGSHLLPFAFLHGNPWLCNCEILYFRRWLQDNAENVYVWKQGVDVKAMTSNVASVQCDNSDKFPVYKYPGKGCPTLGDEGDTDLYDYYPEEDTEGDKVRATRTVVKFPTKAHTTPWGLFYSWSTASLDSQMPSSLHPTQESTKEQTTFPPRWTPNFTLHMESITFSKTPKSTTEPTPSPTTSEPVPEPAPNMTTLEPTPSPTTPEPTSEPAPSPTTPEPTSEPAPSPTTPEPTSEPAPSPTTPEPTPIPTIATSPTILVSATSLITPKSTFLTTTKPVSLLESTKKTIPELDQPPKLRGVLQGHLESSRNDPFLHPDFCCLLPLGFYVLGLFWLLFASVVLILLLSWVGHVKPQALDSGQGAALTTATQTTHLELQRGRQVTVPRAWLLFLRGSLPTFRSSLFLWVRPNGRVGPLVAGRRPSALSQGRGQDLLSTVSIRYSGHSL
T1 sequence (P13224 26-206 partner): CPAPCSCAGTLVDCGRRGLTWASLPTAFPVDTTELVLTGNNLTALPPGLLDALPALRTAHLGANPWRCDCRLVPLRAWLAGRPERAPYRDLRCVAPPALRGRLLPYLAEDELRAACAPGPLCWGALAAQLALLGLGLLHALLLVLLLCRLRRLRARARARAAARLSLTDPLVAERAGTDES
T1 sequence (P14770 17-177 partner): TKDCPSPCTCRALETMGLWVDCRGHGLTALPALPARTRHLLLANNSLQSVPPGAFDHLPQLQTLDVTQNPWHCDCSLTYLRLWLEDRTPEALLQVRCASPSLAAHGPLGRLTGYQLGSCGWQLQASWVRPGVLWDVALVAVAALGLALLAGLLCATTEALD

Compound | IC50 [1] [µM] | IC50 [2, 3] [µM] | IC50 [2] [µM]
N=C(N)NCCC[C@H](NC(=O)[C@H](CCCCN)NC(=O)[C@H](CCCNC(=N)N)NC(=O)[C@@H](N)CCCCN)C(=O)O [(KR)₂] (H-KRKR-OH) | 200 |  | 
KRKRKR [(KR)₃] | 120 | 23 | 
KRKRKRKRGDV [(KR)₄GDV] | 16 | 15 | 
RRRRRRRRGDV [(R)₈GDV] | 6 |  | 3.5
YRGDV [YRGDV, reference compound] | > 600 |  | 
